In PubChem BioAssay AID1963828 (Molecular Pharmacology Branch, DTP, NCI, 2024):
pIC50: −log10 of the molar value. Where “and” joins values, the source holds several entries; their conditions need not be identical. Equal values may be shown once.

System: 991263-137-R1-J2-PDC complex spheroid viability
Assay: Anticancer human tumor 991263-137-R1-J2-PDC patient-derived colon adenocarcinoma cell line growth inhibition [POLQ]
Conditions: for viability, T/C: stronger effect = lower value; for pIC50: curve of compound
Experimental: Multicellular complex tumor spheroid response to Polymerase (POL) inhibitors (novobiocin, ART-558, RP6685) in combination with a variety of drugs and investigational agents in selected tumor cell lines
The POL inhibitors (novobiocin, ART-558, and RP6685) were evaluated both individually and in combination with standard of care and investigational anticancer small molecules within a complex spheroid model of solid tumors. . Complex spheroids include a stromal component modeled by human endothelial cells (HUVEC) and fibroblasts modeled by human mesenchymal stem cells (MSCs). The concentration ranges selected for each drug and investigational agent were based upon clinically achievable concentrations if the clinical Cmax of the agent was known.
Compounds. The drugs and investigational agents: novobiocin (NSC847541), ART-558 (NSC835418), RP-6685 (NSC848927), peposertib (NSC802822), ceralasertib (NSC780249), elimusertib (NSC800525), camonsertib (NSC841442), AZD-1390 (NSC803789), olaparib (NSC753686), talazoparib (NSC767125), rucaparib (NSC756644), sotorasib (NSC818433), MRTX-1133 (NSC836407), SN-38 (NSC673596), topotecan (NSC609699), epotoside (NSC141540), doxorubicin (NSC123127), gemcitabine (NSC613327), 5-fluorouracil (NSC19893), paclitaxel (NSC125973), vemurafenib (NSC761431), MSA-2 (NSC828583), SN-011 (NSC837082), adavosertib (NSC754352), prexasertib (NSC758257), carboplatin (NSC241240) and oxaliplatin (NSC266046), were obtained from the National Cancer Institute (NCI) Developmental Therapeutics Program Chemical Repository (21). The FDA-approved anticancer drug set is available from the Developmental Therapeutics Program at https://dtp.cancer.gov/organization/dscb/obtaining/. […] The stock solutions were prepared in dimethyl sulfoxide (DMSO, Sigma-Aldrich, St. Louis, MO, cat. D2650), except for the platinum compounds which were prepared in saline (Quality Biological, Gaithersburg, MD, cat. 114-055-101), at 800-fold the tested concentration and stored at -70 degrees C prior to their use. All drugs and investigational agents were tested over a range starting from a high concentration at or near the clinical Cmax and decreasing in half-log increments. If the clinical Cmax for an agent had not been determined, the highest concentration tested was 10 microM, except for SN-38, which was tested at a high concentration of 1 microM.
Cell Culture. All cells were maintained in an incubator at 37 degrees C and 5% CO2 with 95% humidity. The PDC lines were cultured according to standard operating procedures established by the NCI PDMR (https://pdmr.cancer.gov). Table 3 of the manuscript, lists the cell lines along with the number of the three cell types plated to form the mct-spheroids and media for tumor cell growth. After thawing, all PDC lines, except 997537-175-T-J1-PDC and 415267-285-R-J2-PDC, were cultured in Matrigel-coated flasks prepared with a working solution of 1X Ham's F-12 nutrient mix, without supplementation (Thermo Fisher Scientific, cat. 11765054), 100 U/mL penicillin-streptomycin (Thermo Fisher Scientific, cat. 15140122), and 2.5% Matrigel (Corning Inc., Corning, NY, cat. 354248) for the first three passages. The two PDC lines 997537-175-T-J1-PDC and 415267-285-R-J2-PDC were cultured on uncoated flasks. The 857933-349-R-J2-PDC line was cultured in 6C/Colon 1B media containing advanced DMEM/F-12 (Thermo Fisher Scientific, cat. 12634028), 10 mM HEPES (Thermo Fisher Scientific, cat. 15630080), 1X GlutaMAX supplement (Thermo Fisher Scientific, cat. 35050061), 0.1 mg/mL primocin (InvivoGen, San Diego, CA, cat. ant-pm-2), 10% defined fetal bovine serum, heat inactivated (HyClone Laboratories Inc., Logan, UT, cat. SH30070.03HI), 50% L-WRN conditioned media (ATCC, cat. CRL-3276), 1.25 mM N-Acetyl-L-cysteine (Sigma-Aldrich, cat. A9165), 10 mM nicotinamide (Sigma-Aldrich, cat. N0636), 1X B-27 supplement (Thermo Fisher Scientific, cat. 17504044), 1X N-2 supplement (Thermo Fisher Scientific, cat. […]
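Also: spheroids exposed to compounds for 7 days before readout.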
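For viability, T/C in this document: 100% = DMSO vehicle control viability.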

Q: Which viability, T/C (compound 0.0316 µM) does the source give for `C#Cc1c(F)ccc2cc(O)cc(-c3ncc4c(N5CC6CCC(C5)N6)nc(OCC56CCCN5CC(F)C6)nc4c3F)c12` (stereo not given) here?
A: 111% and 87.6% and 112%

Q: What about the viability, T/C (compound 0.1 µM) of the same compound?
A: 107% and 91.8% and 88.9%

Q: What about the viability, T/C (compound 0.316 µM) of the same compound?
A: 104% (2×) and 103%

Q: What about the viability, T/C (compound 1 µM) of the same compound?
A: 108% and 105% and 109%

Q: What about the viability, T/C (compound 3.16 µM) of the same compound?
A: 96.9% and 116% (2×)

Q: And the viability, T/C (compound 10 µM)?
A: 104% and 99.7% and 82.3%

Q: What about the pIC50 of the same compound?
A: < 5.00

Q: How did the viability, T/C (compound 0.0316 µM) turn out when `C=CC(=O)N1CCN(c2nc(=O)n(-c3c(C)ccnc3C(C)C)c3nc(-c4c(O)cccc4F)c(F)cc23)C(C)C1` (stereo not given) was run?
A: 119% and 99.2% and 102%

Q: What about the viability, T/C (compound 0.1 µM) of the same compound?
A: 104% (2×) and 89.8%

Q: What about the viability, T/C (compound 0.316 µM) of the same compound?
A: 107% and 105% and 103%

Q: What about the viability, T/C (compound 1 µM) of the same compound?
A: 118% and 107% and 104%

Q: And the viability, T/C (compound 10 µM)?
A: 104% and 108% and 110%

Q: And the pIC50?
A: < 5.00

Q: With `C=CCn1c(=O)c2cnc(Nc3ccc(N4CCN(C)CC4)cc3)nc2n1-c1cccc(C(C)(C)O)n1` as the compound, how does the viability, T/C (compound 0.00316 µM) read?
A: 103% and 105% and 106%

Q: And the viability, T/C (compound 0.01 µM)?
A: 88.5% and 105% and 93.9%

Q: And the viability, T/C (compound 0.0316 µM)?
A: 87% and 106% and 98.4%

Q: And the viability, T/C (compound 0.1 µM)?
A: 107% and 98.7% and 95.2%

Q: What about the viability, T/C (compound 1 µM) of the same compound?
A: 86.5% and 94.9% and 95%

Q: What about the pIC50 of the same compound?
A: < 6.00

Q: What does the source list for `CC(=O)O[C@H]1C(=O)[C@@]2(C)[C@H]([C@H](OC(=O)c3ccccc3)[C@]3(O)C[C@H](OC(=O)[C@H](O)[C@@H](NC(=O)c4ccccc4)c4ccccc4)C(C)=C1C3(C)C)[C@]1(OC(C)=O)CO[C@@H]1C[C@@H]2O`?
A: viability, T/C (compound 0.00949 µM): 79.8% and 86.8% and 96.5%; viability, T/C (compound 0.03 µM): 85.2% and 89.3% and 87.6%; viability, T/C (compound 0.0949 µM): 85.4% and 84% and 87.8%; viability, T/C (compound 0.3 µM): 73.3% and 77.9% and 82.3%; viability, T/C (compound 0.949 µM): 52.2% and 63.6% and 54.8%; viability, T/C (compound 3 µM): 46.8% and 47.3% and 44.4%; pIC50: 5.84 and 5.61 and 5.79

Q: `CC(C)n1c(=O)n(C)c2cnc3cc(F)c(-c4ccc(OCCCN5CCCCC5)nc4)cc3c21` was tested. Which viability, T/C (compound 0.0316 µM) did it give?
A: 101% and 103% and 89.4%

Q: What about the viability, T/C (compound 0.1 µM) of the same compound?
A: 103% and 104% and 95.9%

Q: And the viability, T/C (compound 0.316 µM)?
A: 85.1% and 103% and 99.6%

Q: And the viability, T/C (compound 1 µM)?
A: 110% and 121% and 129%

Q: And the viability, T/C (compound 3.16 µM)?
A: 101% and 104% and 89.3%

Q: And the pIC50?
A: < 5.00

Q: Which results are given for `CC1COCCN1c1cc(-c2ccnn2C)c2ccnc(-c3ccn[nH]3)c2n1` (stereo not given)?
A: viability, T/C (compound 0.0316 µM): 112% and 99.9% and 100%; viability, T/C (compound 0.1 µM): 86.5% and 89.2% and 93.4%; viability, T/C (compound 0.316 µM): 81.6% and 77.2% and 83%; viability, T/C (compound 1 µM): 52.1% and 41.8% and 54.8%; viability, T/C (compound 3.16 µM): 35.4% and 24% and 43.9%; viability, T/C (compound 10 µM): 28.9% and 25.4% and 31.9%; pIC50: 5.87 and 6.12 and 5.77

Q: What does the source list for `CC1COCCN1c1cc(C2(O)CC3CCC(C2)O3)c2cnn(-c3ccn[nH]3)c2n1` (stereo not given)?
A: viability, T/C (compound 0.0316 µM): 103% and 87.7% and 99%; viability, T/C (compound 0.1 µM): 95.7% and 94% and 86.5%; viability, T/C (compound 0.316 µM): 88.2% and 74.1% and 73.4%; viability, T/C (compound 1 µM): 56.8% and 58.5% and 54.9%; viability, T/C (compound 3.16 µM): 36.5% and 33.8% and 36.9%; viability, T/C (compound 10 µM): 30.4% and 26.9% and 29.3%; pIC50: 5.82 and 5.85 and 5.87

Q: `CC1COCCN1c1cc(C2(S(C)(=N)=O)CC2)nc(-c2ccnc3[nH]ccc23)n1` (stereo not given) was tested. Which viability, T/C (compound 0.0316 µM) did it give?
A: 107% and 98.9% and 98.6%

Q: What about the viability, T/C (compound 0.1 µM) of the same compound?
A: 96.1% and 109% and 104%

Q: And the viability, T/C (compound 0.316 µM)?
A: 100% and 94.6% and 92.8%

Q: And the viability, T/C (compound 1 µM)?
A: 103% and 101% and 95.1%

Q: What about the viability, T/C (compound 3.16 µM) of the same compound?
A: 83% and 97.9% and 103%

Q: What about the viability, T/C (compound 10 µM) of the same compound?
A: 75.5% and 93.9% and 74.7%

Q: And the pIC50?
A: < 5.00

Q: What does the source list for `CCCS(=O)(=O)Nc1ccc(F)c(C(=O)c2c[nH]c3ncc(-c4ccc(Cl)cc4)cc23)c1F`?
A: viability, T/C (compound 0.0316 µM): 110% and 93.5% and 111%; viability, T/C (compound 0.1 µM): 99.2% and 90.3% and 101%; viability, T/C (compound 0.316 µM): 108% and 94.4% and 86%; viability, T/C (compound 3.16 µM): 114% and 104% and 107%; viability, T/C (compound 10 µM): 97.2% and 94.1% and 109%; pIC50: < 5.00

Q: For `CC[C@@]1(O)C(=O)OCc2c1cc1n(c2=O)Cc2cc3c(CN(C)C)c(O)ccc3nc2-1`, which viability, T/C (compound 0.000316 µM) is on record?
A: 111% and 94.9% and 103%

Q: And the viability, T/C (compound 0.001 µM)?
A: 101% and 96.9% and 107%

Q: And the viability, T/C (compound 0.00316 µM)?
A: 110% (2×) and 111%

Q: What about the viability, T/C (compound 0.01 µM) of the same compound?
A: 105% and 101% and 91.5%

Q: And the viability, T/C (compound 0.0316 µM)?
A: 100% and 91.2% and 89.8%

Q: And the viability, T/C (compound 0.1 µM)?
A: 90.4% and 80.7% and 84.4%

Q: What about the pIC50 of the same compound?
A: < 7.00

Q: With `CCc1c2c(nc3ccc(O)cc13)-c1cc3c(c(=O)n1C2)COC(=O)[C@]3(O)CC` as the compound, how does the viability, T/C (compound 0.00316 µM) read?
A: 88.8% and 83.4% and 108%

Q: What about the viability, T/C (compound 0.01 µM) of the same compound?
A: 80% and 74.9% and 74%

Q: And the viability, T/C (compound 0.0316 µM)?
A: 63% and 64.4% and 51.9%

Q: And the viability, T/C (compound 0.1 µM)?
A: 49.8% and 45.2% and 54.4%

Q: And the viability, T/C (compound 0.316 µM)?
A: 37.3% and 37.2% and 36.9%

Q: What about the viability, T/C (compound 1 µM) of the same compound?
A: 25.2% and 26.9% and 20.9%

Q: What about the pIC50 of the same compound?
A: 7.00 and 7.08 and 7.03

Q: With `CCc1cc2c(N3CCc4c(cc(Cn5ccnc5)cc4-c4cn(C)nc4C(F)(F)F)C3=O)cc(C)nc2c(OC)n1` as the compound, how does the viability, T/C (compound 0.0316 µM) read?
A: 107% and 96% and 92.8%

Q: What about the viability, T/C (compound 0.1 µM) of the same compound?
A: 101% and 98.5% and 96.4%

Q: What about the viability, T/C (compound 3.16 µM) of the same compound?
A: 97.9% and 96.1% and 96.5%

Q: And the viability, T/C (compound 10 µM)?
A: 93.5% and 82.6% and 105%

Q: And the pIC50?
A: < 5.00

Q: With `CCc1cc2c(N3CCc4c(cc(Cn5ccnc5)cc4-c4cn(C)nc4C(F)(F)F)C3=O)ccnc2c(OC)n1` as the compound, how does the viability, T/C (compound 0.0316 µM) read?
A: 95% and 111% and 105%

Q: What about the viability, T/C (compound 0.1 µM) of the same compound?
A: 98.7% and 90.5% and 101%

Q: And the viability, T/C (compound 0.316 µM)?
A: 94.4% and 103% and 99.7%

Q: And the viability, T/C (compound 1 µM)?
A: 101% and 91.2% and 96.7%

Q: And the viability, T/C (compound 3.16 µM)?
A: 91.8% and 97.7% and 83.7%

Q: And the viability, T/C (compound 10 µM)?
A: 98.8% and 88.6% and 94.2%

Q: And the pIC50?
A: < 5.00
